Key:
neutrophils in BALF = test: Antigen-induced respiratory neutrophil infiltration in rat (BALF); type: in vivo, BN rats; conditions: Compound (I) 30 μg/rat, budesonide 10 μg/rat; for Number of neutrophils: mean±standard error
Description: (§1) Inhibitory Effect of Combined Administration of Compound (I) and Steroid Agent on Antigen-Induced Respiratory Eosinophil and Neutrophil Infiltration in Rat
(§2) The test was conducted according to a known method (Pulmonary Pharmacology, vol. 8, pp. 83-89 (1995)).
(§3) In the test, 6-week-old male BN rats (Charles River Japan) were used. The rats were placed in aluminum cages each containing 5 to 6 rats in a breeding room at room temperature (19° C. to 25° C.) and a humidity of 30% to 70% under illumination for 12 hours a day (7 a.m. to 7 p.m.) and bred by free intake of commercially available feeds and water.
(§4) A preparation (Compound (I)-lactose preparation) containing 5 mg of lactose (produced by DVM Corporation) to 1 mg of Compound (I) was prepared, and a suspension for administering Compound (I) was prepared by suspending the Compound (I)-lactose preparation in a 0.125 wt/vol % tyloxapol aqueous solution (ALEVAIRE: registered trade mark, produced by Azwell Inc.) so that the concentration of Compound (I) was 150 μg/mL. Also, a suspension for administering budesonide was prepared by suspending lactose and budesonide (manufactured by Sigma Corporation) in a 0.125 wt/vol % tyloxapol aqueous solution so that the concentrations of lactose and budesonide were 750 μg/mL and 50 μg/mL, respectively. Furthermore, a suspension for combined administration was prepared by suspending budesonide and the Compound (I)-lactose preparation prepared as described above in a 0.125 wt/vol % tyloxapol aqueous solution so that the concentrations of budesonide and Compound (I) were 50 μg/mL and 150 μg/mL, respectively. On the other hand, a solvent for administration was prepared by dissolving lactose in a 0.125 wt/vol % tyloxapol aqueous solution so that the concentration was 7.5 mg/mL.
(§5) The rats were subcutaneously administered with 1 mL of a suspension of 1 mg of ovalbumin (OVA, manufactured by Sigma Co.) and 200 mg of aluminum hydroxide (manufactured by Wako Pure Chemicals Industries, Ltd.) suspended in 1 mL of physiological saline (manufactured by Otsuka Pharmaceutical Co., Ltd.). Then, 0.5 mL of a suspension of killed Bordetella pertussis cells (2×10^10 cells/1 mL physiological saline, manufactured by Kaken Pharmaceutical Co., Ltd.) was intraperitoneally administered to perform active sensitization. Fourteen days after the active sensitization, the rats were placed in a plastic chamber (30×50×30 cm), and an 1 wt/vol % OVA physiological saline solution was nebulized for 10 minutes using an ultrasonic nebulizer (manufactured by Omron Corporation) to perform antigen challenge. […]
(§6) The total number of the leukocytes in BALF was measured with an automatic leukocyte counter (manufactured by Nihon Kohden Corporation). […]

eosinophils in BALF = test: Antigen-induced respiratory eosinophil infiltration in rat (BALF); type: in vivo, BN rats; conditions: Compound (I) 30 μg/rat, budesonide 10 μg/rat; for Inhibition ratio (number of eosinophils) / Number of eosinophils: OVA-sensitized BN rats, intrabronchial 30 min before antigen challenge, BAL 24 h after; for Number of eosinophils: mean±standard error
Description: as §1, §2, §3, §4
as §5, with “challenge. Thirty minutes before the antigen-challenge, 100 μL of each of the suspensions for administration prepared as described above was intrabronchially administered to each of the right and left bronchi, i.e., administered in a total of 200 μL (medicine-administered group). Similarly, thirty minutes before the antigen challenge, a group which the solvent for administration was intrabronchially administered (solvent-administered group) was prepared. Also, a group which the solvent for administration was intrabronchially administered and a physiological saline was nebulized instead of the 1 wt/vol % OVA physiological saline solution (physiological saline-administered group) was prepared.” for “challenge.”
as §6

[1] = OVA-sensitized BN rats, intrabronchial 30 min before antigen challenge, BAL 24 h after

Row | SMILES | Effect on the number of neutrophils in BALF (in words) (neutrophils in BALF; sole or combined) | Inhibition ratio (number of neutrophils) (neutrophils in BALF; OVA-sensitized BN rats, intrabronchial 30 min before antigen challenge, BAL 24 h after, N.E. = No effect) [%] | Number of neutrophils (neutrophils in BALF; [1]) | Inhibitory effect against increases in the number of eosinophils in BALF (in words) (eosinophils in BALF; sole or combined) | Inhibition ratio (number of eosinophils) (eosinophils in BALF) [%] | Number of eosinophils (eosinophils in BALF)
1 | COc1ccc(C(=O)Cc2c(Cl)cncc2Cl)c2c1OC1(CCCC1)O2 [Compound (I), 7-[2-(3,5-dichloro-4-pyridyl)-1-oxoethyl]-4-methoxy-spiro[1,3-benzodioxol-2,1′-cyclopentane]] | not significantly affected | 3 | 2.28 ± 0.27 10^6/BALF | inhibitory effect against increases in the number of eosinophils was exhibited | 54 | 0.26 ± 0.08 10^6/BALF
2 | CCCC1O[C@@H]2C[C@H]3[C@@H]4CCC5=CC(=O)C=C[C@]5(C)[C@H]4[C@@H](O)C[C@]3(C)[C@]2(C(=O)CO)O1 (stereo partly drawn) [Budesonide, budesonide, reference compound] | – | – | 2.50 ± 0.31 10^6/BALF | – | 54 | 0.26 ± 0.06 10^6/BALF

Reference: patent publication US20060199789A1, “medical composition” (Kyowa Hakko Kogyo Co., Ltd., priority 2003, published 2006)
